Data on three molecules can be found in ChEMBL document CHEMBL5344419, “Synthesis and characterization of the N-succinyl-l,l-diaminopimelic acid desuccinylase (DapE) alternate substrate analog N,N-dimethyl-l,l-SDAP” (Bioorg Med Chem, 2023).

In data set [1] the target is T1, Succinyl-diaminopimelate desuccinylase (Haemophilus influenzae (strain ATCC 51907 / DSM 11121 / KW20 / Rd), UniProt P44514).
T1 sequence (P44514 whole entry): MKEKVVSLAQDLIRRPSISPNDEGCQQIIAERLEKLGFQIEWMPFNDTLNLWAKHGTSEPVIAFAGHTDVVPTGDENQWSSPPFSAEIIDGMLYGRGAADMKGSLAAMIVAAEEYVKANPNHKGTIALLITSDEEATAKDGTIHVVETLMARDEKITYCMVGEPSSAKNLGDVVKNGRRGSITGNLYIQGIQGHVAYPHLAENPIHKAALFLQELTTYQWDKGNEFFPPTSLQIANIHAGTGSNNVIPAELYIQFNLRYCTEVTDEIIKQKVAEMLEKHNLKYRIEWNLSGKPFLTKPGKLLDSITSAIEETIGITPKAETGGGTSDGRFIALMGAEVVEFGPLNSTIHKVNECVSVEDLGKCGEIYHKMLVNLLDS
Kind of data set: Binding affinity to Haemophilus influenzae DapE assessed as dissociation constant.

Data set [2] deals with T1, Succinyl-diaminopimelate desuccinylase. The data set is described as follows: Inhibition of Haemophilus influenzae DapE at 80 degreeC incubated for 15 mins by ninhydrin based assay.
Data set [3] has as its target T2, Succinyl-diaminopimelate desuccinylase (Haemophilus influenzae (strain ATCC 51907 / DSM 11121 / KW20 / Rd)) (UniProt P44514).
T2 sequence (whole entry): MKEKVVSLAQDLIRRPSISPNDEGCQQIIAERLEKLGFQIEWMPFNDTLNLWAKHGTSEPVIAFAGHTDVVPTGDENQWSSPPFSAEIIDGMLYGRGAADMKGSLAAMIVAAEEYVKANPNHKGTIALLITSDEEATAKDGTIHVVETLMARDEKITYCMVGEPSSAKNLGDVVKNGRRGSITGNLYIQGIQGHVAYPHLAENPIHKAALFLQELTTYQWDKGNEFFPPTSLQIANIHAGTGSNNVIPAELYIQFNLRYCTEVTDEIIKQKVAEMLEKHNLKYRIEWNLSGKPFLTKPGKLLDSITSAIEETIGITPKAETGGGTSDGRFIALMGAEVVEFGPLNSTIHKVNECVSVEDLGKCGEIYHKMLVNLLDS
Kind of data set: Thermal stabilization of Haemophilus influenzae DapE assessed as increase in second melting temperature by SYPRO orange dye based thermal shift assay.

For data set [4], the target named is T1, Succinyl-diaminopimelate desuccinylase. Kind of data set: Inhibition of Haemophilus influenzae DapE at 100 degreeC incubated for 10 mins by ninhydrin based assay.
The target of data set [5] is T2, Succinyl-diaminopimelate desuccinylase (Haemophilus influenzae (strain ATCC 51907 / DSM 11121 / KW20 / Rd)). Kind of data set: Thermal stabilization of Haemophilus influenzae DapE assessed as increase in first melting temperature by SYPRO orange dye based thermal shift assay.
Substrate in data set [6]: CN(C)[C@@H](CCC[C@H](NC(=O)CCC(=O)O)C(=O)O)C(=O)O
The data set is described as follows: Substrate activity at Haemophilus influenzae DapE assessed as Kcat/Km at 100 DegreeC incubated for 10 mins by ninhydrin assay.

Substrate in data set [7]: CN(C)[C@@H](CCC[C@H](NC(=O)CCC(=O)O)C(=O)O)C(=O)O
Kind of data set: (§1) Substrate activity at Haemophilus influenzae DapE assessed as Kcat/Km incubated for 10 mins by ninhydrin based assay.

Substrate in data set [8]: CN[C@@H](CCC[C@H](NC(=O)CCC(=O)O)C(=O)O)C(=O)O
The data set is described as §1.

Substrate in data set [9]: CN(C)[C@@H](CCC[C@H](NC(=O)CCC(=O)O)C(=O)O)C(=O)O
The data set is described as follows: Substrate activity at Haemophilus influenzae DapE assessed as Kcat/Km at 80 DegreeC incubated for 15 mins by ninhydrin based assay.

Active and inactive are the calls of the source. The calls are words filed in the database; no cut-off is given here.

The Kd is the equilibrium constant for the complex coming apart. In general, IC50 refers to the concentration that gives 50% inhibition. By ΔTm is commonly meant the change in melting temperature against a reference sample. In the case of `CN(C)[C@@H](CCC[C@H](NC(=O)CCC(=O)O)C(=O)O)C(=O)O`, the Kd in [1] turned out to be 1320 µM. The IC50 in data set [2] came out at 0.89 µM; in data set [4] it was 1.5 µM. Moreover, the ΔTm in data set [3] amounted to 3 °C. Besides, the outcome in [5] was Active.

With `CN[C@@H](CCC[C@H](NC(=O)CCC(=O)O)C(=O)O)C(=O)O`, in [5], the outcome was Active.

B1: Succinyl-diaminopimelate desuccinylase (Haemophilus influenzae (strain ATCC 51907 / DSM 11121 / KW20 / Rd)), P44514 (protein)
chain: MKEKVVSLAQDLIRRPSISPNDEGCQQIIAERLEKLGFQIEWMPFNDTLNLWAKHGTSEPVIAFAGHTDVVPTGDENQWSSPPFSAEIIDGMLYGRGAADMKGSLAAMIVAAEEYVKANPNHKGTIALLITSDEEATAKDGTIHVVETLMARDEKITYCMVGEPSSAKNLGDVVKNGRRGSITGNLYIQGIQGHVAYPHLAENPIHKAALFLQELTTYQWDKGNEFFPPTSLQIANIHAGTGSNNVIPAELYIQFNLRYCTEVTDEIIKQKVAEMLEKHNLKYRIEWNLSGKPFLTKPGKLLDSITSAIEETIGITPKAETGGGTSDGRFIALMGAEVVEFGPLNSTIHKVNECVSVEDLGKCGEIYHKMLVNLLDS
Usually kcat/Km stands for the turnover number divided by the Michaelis constant. For the molecule B1, the catalytic efficiency (kcat/Km) in data set [6] was 4.03 10^5/M/s; in [7], 3.49 10^5/M/s; in [8], 4.4 10^5/M/s; in data set [9] it was 3.49 10^5/M/s.
